From patent US12180207B2 (ARRAY BIOPHARMA INC., priority 2018, dated 2024)

Key:
[1] = target: phosphorylated FGFR3 (SEQ ID NO: 5, amino acids 449 to 759) (Homo sapiens (Human), UniProt P22607); test: FGFR enzyme binding assay (HTRF tracer displacement), FGFR3; conditions: 5 nM phosphorylated FGFR3, average of multiple determinations if made
Description: (§1) The potency of compounds inhibiting human isoforms of FGFR kinase was determined using Life Technologies' Homogeneous Time Resolved Fluorescence (HTRF)-based binding assay technology. […] After a 60 minute incubation at 22° C., the extent of tracer displacement was determined using a PerkinElmer EnVision multimode plate reader via HTRF dual wavelength detection, and the percent of control (POC) was calculated using a ratiometric emission factor. One hundred POC was determined using no test compound, and 0 POC was determined in the presence of 1 μM of an appropriate control inhibitor.

[2] = target: dephosphorylated FGFR1 (SEQ ID NO: 1, amino acids 458 to 765) (Homo sapiens (Human), UniProt P11362); test: FGFR enzyme binding assay (HTRF tracer displacement), FGFR1; conditions: 5 nM dephosphorylated FGFR1, average of multiple determinations if made
Description: as §1

[3] = target: recombinant human FGFR3 (amino acids R397-T806) (Homo sapiens (Human), UniProt P22607); test: FGFR3 enzyme activity assay (LanthaScreen TR-FRET); type: biochemical; conditions: 25 μM ATP, 10 min incubation at 22° C., average of multiple determinations if made, read-out: FGFR3 Enz FRET IC50
Description: FGFR3 kinase activity was measured by the Invitrogen LanthaScreen™ Assay technology which directly measures the amount of substrate phosphorylation by TR-FRET using a fluorescently-labeled peptide and Europium-labeled antibody. Briefly, […] N-terminal GST-HIS6 fusion protein with a 3C cleavage site recombinant human FGFR3 (amino acids R397-T806) (ProQinase Cat. No. 1068-0000-1) was incubated with 100 nM Alexa Fluor® 647-Poly-GT Peptide Substrate (Life Technologies Cat. No. PV5836) and 25 μM ATP along with test compound in a buffer consisting of 250 mM HEPES, 25 mM MgCl2, 0.05% TritonX-100, pH 7.5, and 2% DMSO. […] After a 10 minute incubation at 22° C., an equal volume of 2 nM LanthaScreen® Eu-PY20 Antibody (Life Technologies Cat. No. PV5691) and 10 mM EDTA were added to quench the kinase reaction and start the detection reaction. After an additional 60 minute incubation at 22° C., the reaction was measured using a PerkinElmer EnVision multimode plate reader via TR-FRET dual wavelength detection, and the percent of control (POC) calculated using a ratiometric emission factor. 100 POC was determined using no test compounds and 0 POC was determined using no enzyme. The POC values were fit to a 4-parameter logistic curve as a function of the concentration of the compound, and the IC50 value is the point where the curve crosses 50 POC.

[4] = target: recombinant human FGFR1 catalytic domain (amino acids 308-731) (Homo sapiens (Human), UniProt P11362); test: FGFR1 enzyme activity assay (LanthaScreen TR-FRET); type: biochemical; conditions: 20 min incubation at 22° C., average of multiple determinations if made, read-out: FGFR1 Enz FRET IC50
Description: FGFR1 kinase activity was measured by the Invitrogen LanthaScreen™ Assay technology which directly measures the amount of substrate phosphorylation by Time-resolved fluorescence energy transfer (TR-FRET) using a fluorescently-labeled peptide and Europium-labeled antibody. Briefly, […] His-tagged recombinant human FGFR1 catalytic domain (amino acids 308-731) (Life Technologies Cat. No. PR4660A) was incubated with 100 nM Alexa Fluor® 647-Poly-GT Peptide Substrate (Life Technologies Cat. No. PV5836) and […] ATP along with test compound in a buffer consisting of 250 mM HEPES, 25 mM MgCl2, 0.05% TritonX-100, pH 7.5, and 2% DMSO. […] After a 20 minutes incubation at 22° C., an equal volume of 2 nM LanthaScreen® Eu-PY20 Antibody (Life Technologies Cat. No. PV5691) and 10 mM EDTA was added to quench the kinase reaction and start the detection reaction. After an additional 60 minute incubation at 22° C., the reaction was measured using a PerkinElmer EnVision multimode plate reader via TR-FRET dual wavelength detection, and the percent of control (POC) calculated using a ratiometric emission factor. 100 POC was determined using no test compounds and 0 POC was determined using no enzyme. The POC values were fit to a 4-parameter logistic curve as a function of the concentration of the compound, and the IC50 value is the point where the curve crosses 50 POC.

[5] = target: recombinant human FGFR2 cytoplasmic domain (amino acids 403-822) (Homo sapiens (Human), UniProt P21802); test: FGFR2 enzyme activity assay (LanthaScreen TR-FRET); type: biochemical; conditions: 15 μM ATP, 20 min incubation at 22° C., average of multiple determinations if made, read-out: FGFR2 Enz FRET IC50
Description: FGFR2 kinase activity was measured by the Invitrogen LanthaScreen™ Assay technology which directly measures the amount of substrate phosphorylation by TR-FRET using a fluorescently-labeled peptide and Europium-labeled antibody. Briefly, […] His-tagged recombinant human FGFR2 cytoplasmic domain (amino acids 403-822) (Life Technologies Cat. No. PR5332A) was incubated with 100 nM Alexa Fluor® 647-Poly-GT Peptide Substrate (Life Technologies Cat. No. PV5836) and 15 μM ATP along with test compound in a buffer consisting of 250 mM HEPES, 25 mM MgCl2, 0.05% TritonX-100, pH 7.5, and 2% DMSO. […] After a 20 minute incubation at 22° C., an equal volume of 2 nM LanthaScreen® Eu-PY20 Antibody (Life Technologies Cat. No. PV5691) and 10 mM EDTA were added to quench the kinase reaction and start the detection reaction. After an additional 60 minute incubation at 22° C., the reaction was measured using a PerkinElmer EnVision multimode plate reader via TR-FRET dual wavelength detection, and the percent of control (POC) calculated using a ratiometric emission factor. 100 POC was determined using no test compounds and 0 POC was determined using no enzyme. The POC values were fit to a 4-parameter logistic curve as a function of the concentration of the compound, and the IC50 value is the point where the curve crosses 50 POC.

[6] = target: FGFR3 (SEQ ID NO: 5, amino acids 449-759) (Homo sapiens (Human), UniProt P22607); test: LC/MS FGFR3 kobs assay (covalent protein modification); type: binding; conditions: 500 nM FGFR3, 3 μM compound
Description: (§2) The LC/MS FGFR1 and FGFR3 kobs assays were conducted as follows. […] At each time point, the reaction was quenched with 20 μL of 0.4% formic acid. The extent of protein modification by each compound was determined by LC/MS on an Agilent Technologies 6520 Q-TOF LC/MS. Protein signals were then automatically deconvoluted using Agilent Masshunter software. Deconvoluted mass signals were exported to Tibco Spotfire data analysis program for further processing and normalization.
(§3) Data analysis included five steps. First, the signals for the “DMSO Controls” were analyzed to determine the percent of signal associated with unmodified FGFR1 or FGFR3 at each time point. Next, the percent of the signal associated with the covalent modification was determined. Third, the average nonmodified “DMSO Control” signal was used to normalize the modified protein signals at each time point. The percent of unmodified protein was fit to an exponential decay model where A0 is the Percent Unmodified at the start of the reaction, and kobs is the observed rate constant over the time period.
Table EC contains kobs values for compounds tested in these assays, presented as the average of multiple determinations if multiple determinations were made. ND=not determined.

[7] = target: FGFR1 (SEQ ID NO: 1, amino acids 458-765) (Homo sapiens (Human), UniProt P11362); test: LC/MS FGFR1 kobs assay (covalent protein modification); type: binding; conditions: 500 nM FGFR1, 3 μM compound
Description: as §2, §3

recombinant human FGFR2 cytoplasmic domain (amino acids 403-822), sequence (P21802 402-821): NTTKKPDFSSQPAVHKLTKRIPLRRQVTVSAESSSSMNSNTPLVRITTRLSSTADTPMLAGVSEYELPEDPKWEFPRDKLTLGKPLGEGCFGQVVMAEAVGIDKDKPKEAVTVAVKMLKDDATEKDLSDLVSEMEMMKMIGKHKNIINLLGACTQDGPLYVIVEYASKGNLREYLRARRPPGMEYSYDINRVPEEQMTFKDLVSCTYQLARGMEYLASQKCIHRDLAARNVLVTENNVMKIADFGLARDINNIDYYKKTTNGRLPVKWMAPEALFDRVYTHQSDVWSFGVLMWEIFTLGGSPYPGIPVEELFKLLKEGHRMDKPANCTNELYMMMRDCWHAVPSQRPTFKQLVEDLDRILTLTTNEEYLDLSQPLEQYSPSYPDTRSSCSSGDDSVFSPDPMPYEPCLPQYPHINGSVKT
FGFR1 (SEQ ID NO: 1, amino acids 458-765), sequence (P11362 458-765): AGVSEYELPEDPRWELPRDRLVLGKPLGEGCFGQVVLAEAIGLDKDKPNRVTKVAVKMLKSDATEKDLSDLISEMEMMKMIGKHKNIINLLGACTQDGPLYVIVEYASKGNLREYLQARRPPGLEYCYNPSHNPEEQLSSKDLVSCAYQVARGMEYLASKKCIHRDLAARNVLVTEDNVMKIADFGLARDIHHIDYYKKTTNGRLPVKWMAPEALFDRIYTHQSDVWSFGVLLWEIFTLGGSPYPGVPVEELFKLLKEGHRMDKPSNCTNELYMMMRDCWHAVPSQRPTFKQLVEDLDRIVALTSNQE
dephosphorylated FGFR1 (SEQ ID NO: 1, amino acids 458 to 765), sequence (P11362 458-765): as above
recombinant human FGFR3 (amino acids R397-T806), sequence (P22607 397-806): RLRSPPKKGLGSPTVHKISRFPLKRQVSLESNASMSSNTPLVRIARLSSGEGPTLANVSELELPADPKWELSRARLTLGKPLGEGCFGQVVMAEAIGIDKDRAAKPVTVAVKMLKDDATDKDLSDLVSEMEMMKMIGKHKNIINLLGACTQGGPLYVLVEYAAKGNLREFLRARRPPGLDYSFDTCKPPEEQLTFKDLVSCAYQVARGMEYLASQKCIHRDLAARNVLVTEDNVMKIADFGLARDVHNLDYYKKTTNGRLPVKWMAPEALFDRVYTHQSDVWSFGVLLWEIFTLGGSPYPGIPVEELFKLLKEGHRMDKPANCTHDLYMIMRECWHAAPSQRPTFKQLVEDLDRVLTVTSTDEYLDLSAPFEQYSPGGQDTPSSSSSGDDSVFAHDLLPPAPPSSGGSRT
FGFR3 (SEQ ID NO: 5, amino acids 449-759), sequence (P22607 449-759): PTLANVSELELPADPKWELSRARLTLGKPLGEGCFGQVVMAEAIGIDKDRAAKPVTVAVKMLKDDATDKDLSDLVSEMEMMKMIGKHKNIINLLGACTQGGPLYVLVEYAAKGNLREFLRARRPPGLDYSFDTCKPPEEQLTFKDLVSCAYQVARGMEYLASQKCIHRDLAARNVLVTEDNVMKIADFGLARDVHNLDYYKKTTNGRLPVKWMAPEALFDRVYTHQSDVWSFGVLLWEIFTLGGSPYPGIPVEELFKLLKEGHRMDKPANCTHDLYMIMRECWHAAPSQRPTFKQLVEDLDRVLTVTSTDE
phosphorylated FGFR3 (SEQ ID NO: 5, amino acids 449 to 759), sequence (P22607 449-759): as above
recombinant human FGFR1 catalytic domain (amino acids 308-731), sequence (P11362 other isoform, or with tags, fused parts or gaps): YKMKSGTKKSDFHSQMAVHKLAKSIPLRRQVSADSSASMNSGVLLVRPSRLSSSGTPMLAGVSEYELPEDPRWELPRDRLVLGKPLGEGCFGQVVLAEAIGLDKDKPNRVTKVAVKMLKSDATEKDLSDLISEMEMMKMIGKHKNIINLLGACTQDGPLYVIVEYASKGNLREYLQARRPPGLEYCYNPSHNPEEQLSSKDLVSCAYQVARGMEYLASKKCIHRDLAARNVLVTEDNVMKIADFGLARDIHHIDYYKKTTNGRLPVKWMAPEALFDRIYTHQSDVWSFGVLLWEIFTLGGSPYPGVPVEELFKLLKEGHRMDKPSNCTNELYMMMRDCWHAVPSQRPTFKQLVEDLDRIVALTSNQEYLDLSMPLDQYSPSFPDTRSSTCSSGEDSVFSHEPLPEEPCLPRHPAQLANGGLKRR

Compound: C=CC(=O)N1CCN(C(=O)N2CCC(n3cc(-c4cc(OC)c5c(C#N)cnn5c4)cn3)CC2)CC1 [Example 2, 6-(1-(1-(4-acryloylpiperazine-1-carbonyl)piperidin-4-yl)-1H-pyrazol-4-yl)-4-methoxypyrazolo[1,5-a]pyridine-3-carbonitrile]
- IC50 [1]: 4 nM
- IC50 [2]: 45 nM
- IC50 [3]: 4 nM
- IC50 [4]: 4 nM
- IC50 [5]: 14 nM
- FGFR3 Enz kobs [6]: 0.00444 min⁻¹
- FGFR1 Enz kobs [7]: 0.00076 min⁻¹

Compound: C=CC(=O)N1CC2CC(C1)N2C(=O)N1CCC(n2cc(-c3cc(OC)c4c(C#N)cnn4c3)cn2)CC1 [Example 4, 6-(1-(1-(3-acryloyl-3,6-diazabicyclo[3.1.1]heptane-6-carbonyl)piperidin-4-yl)-1H-pyrazol-4-yl)-4-methoxypyrazolo[1,5-a]pyridine-3-carbonitrile]
- IC50 [1]: 6 nM
- IC50 [2]: 42 nM
- IC50 [3]: 3 nM
- IC50 [4]: 11 nM
- IC50 [5]: 4 nM
- FGFR3 Enz kobs [6]: 0.00283 min⁻¹
- FGFR1 Enz kobs [7]: 0.00052 min⁻¹

Compound: C=CC(=O)N1C[C@H]2C[C@@H]1CN2C(=O)N1CCC(n2cc(-c3cc(OC)c4c(C#N)cnn4c3)cn2)CC1 [Example 5, 6-(1-(1-((1R,4R)-5-acryloyl-2,5-diazabicyclo[2.2.1]heptane-2-carbonyl)piperidin-4-yl)-1H-pyrazol-4-yl)-4-methoxypyrazolo[1,5-a]pyridine-3-carbonitrile]
- IC50 [1]: 5 nM
- IC50 [2]: 47 nM
- IC50 [3]: 7 nM
- IC50 [4]: 25 nM
- IC50 [5]: 11 nM
- FGFR3 Enz kobs [6]: 0.00287 min⁻¹
- FGFR1 Enz kobs [7]: 0.00047 min⁻¹

Compound: C=CC(=O)N1CCC[C@H](C(=O)N2CCC(n3cc(-c4cc(OC)c5c(C#N)cnn5c4)cn3)CC2)C1 [Example 16, (S)-6-(1-(1-(1-acryloylpiperidine-3-carbonyl)piperidin-4-yl)-1H-pyrazol-4-yl)-4-methoxypyrazolo[1,5-a]pyridine-3-carbonitrile]
- IC50 [1]: 6 nM
- IC50 [2]: 31 nM
- IC50 [3]: 2 nM
- IC50 [4]: 20 nM
- IC50 [5]: 4 nM
- FGFR3 Enz kobs [6]: 0.00124 min⁻¹
- FGFR1 Enz kobs [7]: 0.00054 min⁻¹

Compound: C=CC(=O)N1CCC[C@@H](C(=O)N2CC[C@H](n3cc(-c4cc(OC)c5c(C#N)cnn5c4)cn3)C2)C1 [Example 64, 6-(1-((S)-1-((R)-1-acryloylpiperidine-3-carbonyl)pyrrolidin-3-yl)-1H-pyrazol-4-yl)-4-methoxypyrazolo[1,5-a]pyridine-3-carbonitrile]
- IC50 [1]: 20 nM
- IC50 [2]: 94 nM
- IC50 [3]: 2 nM
- IC50 [4]: 23 nM
- IC50 [5]: 5 nM
- FGFR3 Enz kobs [6]: 0.00074 min⁻¹

Compound: C=CC(=O)N[C@H]1CC[C@H](C(=O)N2CC[C@H](n3cc(-c4cc(OC)c5c(C#N)cnn5c4)cn3)C2)CC1 [Example 65, N-((1S,4r)-4-((S)-3-(4-(3-cyano-4-methoxypyrazolo[1,5-a]pyridin-6-yl)-1H-pyrazol-1-yl)pyrrolidine-1-carbonyl)cyclohexyl)acryl-amide]
- IC50 [1]: 56 nM
- IC50 [2]: 177 nM
- IC50 [3]: 3 nM
- IC50 [4]: 26 nM
- IC50 [5]: 6 nM
- FGFR3 Enz kobs [6]: 0.0002 min⁻¹

Compound: C=CC(=O)N[C@H]1C[C@H](C(=O)N2CC[C@H](n3cc(-c4cc(OC)c5c(C#N)cnn5c4)cn3)C2)C1 [Example 74, N-((1S,3r)-3-((S)-3-(4-(3-cyano-4-methoxypyrazolo[1,5-a]pyridin-6-yl)-1H-pyrazol-1-yl)pyrrolidine-1-carbonyl)cyclobutyl)acryl-amide]
- IC50 [1]: 3 nM
- IC50 [2]: 18 nM
- IC50 [3]: 2 nM
- IC50 [4]: 19 nM
- IC50 [5]: 6 nM
- FGFR3 Enz kobs [6]: 0.00063 min⁻¹

Compound: C=CC(=O)N[C@H]1C[C@H](C(=O)N2CC(n3cc(-c4cc(OC)c5c(C#N)cnn5c4)cn3)C2)C1 [Example 79, N-((1r,3r)-3-(3-(4-(3-cyano-4-methoxypyrazolo[1,5-a]pyridin-6-yl)-1H-pyrazol-1-yl)azetidine-1-carbonyl)cyclobutyl)acryl-amide]
- IC50 [1]: 79 nM
- IC50 [2]: 447 nM
- IC50 [3]: 10 nM
- IC50 [4]: 36 nM
- IC50 [5]: 11 nM
- FGFR3 Enz kobs [6]: 0.00116 min⁻¹

Compound: CC#CC(=O)N1CC(C(=O)N2CCC(n3cc(-c4cc(OC)c5c(C#N)cnn5c4)cn3)CC2)C1 [Example 139, 6-(1-(1-(1-(but-2-ynoyl)azetidine-3-carbonyl)piperidin-4-yl)-1H-pyrazol-4-yl)-4-methoxypyrazolo [1,5-a]pyridine-3-carbonitrile]
- IC50 [1]: 11 nM
- IC50 [2]: 104 nM
- IC50 [3]: 4 nM
- IC50 [4]: 13 nM
- FGFR3 Enz kobs [6]: 0.00281 min⁻¹
- FGFR1 Enz kobs [7]: 0.00047 min⁻¹
